The text below walks through data of US3975535A, “Anti-allergic-3-carboxy-isocoumarin compositions and methods of use” (Beecham Group Limited, priority 1973, dated 1976).

The subject of the assay is PCA responses. Description: Rat Passive Cutaneous Anaphylaxis (PCA) test. The assay is classed as in vivo, Wistar rats. On the procedure: All of the compounds prepared in the preceding Examples were submitted for biological testing. The test system was the Rat Passive Cutaneous Anaphylaxis (PCA) test described below in (ii).
i. Serum containing heat labile homocytotropic antibody was raised in rats by a method similar to that used by Mota. (I. Mota Immunology 1964, 7, 681).
Male Wistar rats of 250-300g. were injected intraperitoneally with 0.5 of Bordatella pertussis vaccine (containing 4 × 10^10 dead organism per ml) and subcutaneously with 0.5ml of an emulsion of 100mg. of ovalbumin in 2ml of saline and 3ml of incomplete Freunds' adjuvant. Rats were bled by cardiac puncture on day 18, the blood was pooled and separated and serum stored at -20° and thawed only once before use.
ii. The P.C.A. test was similar to that described by Ovary and Bier (A. Ovary and O. E. Bier, Proc. Soc. Exp. Biol. Med. 1952, 81, 584) and Goose and Blair (J. Goose and AMJ. N. Blair, Immunology 1969, 16, 769).
0.1ml of each of six twofold serial dilutions of the serum in 0.9% saline were injected intradermally into separate sites on the shaved dorsal surface of 250-350g. Wistar rats. 72 hours later the animals were challenged by i.v. injection of 0.3ml of 1% ovalbumin mixed with 0.1ml of a 5% solution of pontamine sky blue dye both in isotonic saline buffered with pH. 7.2 Sorenson buffer (P.B.S.). The rats were killed after 20 minutes and the diameter of the blue wheals at the antibody injection sites were measured. The starting dilution of the serum was adjusted so that there was no response, after challenge, at the site of injection of the highest dilution and a maximum response at the lowest dilution. Typically, six twofold serial dilutions of the serum from 1/4 to 1/128 were used.
Compounds were tested for their ability to reduce the diameter of the wheals at the injection sites of dilutions of antibody which on all the controls have less than maximum response. Amounts of the compounds were administered to rats each amount to a test group of six animals at a specified time prior to intravenous challenge with ovalbumin. The diameters of the blue wheals which developed on the tests group of animals were compared with those on a control group of six animals treated in the same way as the test group, but which had not received the compound under test.
% Inhibition of P.C.A. = 100 (1 - a/b)
a = The mean of the sum of the diameters of the wheals produced in the test group of animals at those antibody sites where all the control group of animals gave less than maximum response.
b = The mean of the sum of diameters of the wheals produced in the control group of animals at those antibody sites where all the animals in the group gave less than maximum response.
The preferred method of administration was a solution of the test compound dissolved in pH 7.2 buffer and neutralised with sodium bicarbonate.

Where [1] appears, read: iv, time 0 mins prior to i.v. ovalbumin challenge.
[2] abbreviates: iv, time 30 mins prior to i.v. ovalbumin challenge.
Where [3] appears, read: first dose pair, only one time (0) printed for the whole line.
Where [4] appears, read: second dose pair, time not printed separately.
Where [5] appears, read: iv, time 60 mins prior to i.v. ovalbumin challenge.
Where [6] appears, read: iv, time 10 mins prior to i.v. ovalbumin challenge.

Broadly, the inhibition is the change of the read-out against control, counted positive when it falls. With `O=C(O)c1cc2ccccc2c(=O)o1` [Example 1, Isocoumarin-3-carboxylic acid], under setting [1], the inhibition at 25 mg/kg is 29% and the inhibition at 100 mg/kg came out at 62%. In addition, under setting [2], the inhibition at 25 mg/kg was -13% and the inhibition at 100 mg/kg came to 16%.
The corresponding values for `Cc1c(C(=O)O)oc(=O)c2ccccc12` [Example 2, 4-Methylisocoumarin-3-carboxylic acid] are -3%, 41%, 0% and 10%.
In the case of `Cc1cccc2cc(C(=O)O)oc(=O)c12` [Example 3, 8-Methylisocoumarin-3-carboxylic acid], the inhibition at 25 mg/kg under setting [3] was found to be 44% and the inhibition at 25 mg/kg under setting [4] was determined as 15%. Moreover, the inhibition at 100 mg/kg runs as follows: under setting [3], 66%; under setting [4], 28%.
In the case of `Cc1c(C(=O)O)oc(=O)c2c(C)cccc12` [Example 4, 4,8-Dimethylisocoumarin-3-carboxylic acid], the inhibition at 25 mg/kg under setting [1] turned out to be 10% and the inhibition at 25 mg/kg under setting [2] stood at 8%. Moreover, the inhibition at 100 mg/kg was found to be 12% under setting [1] and 48% under setting [2].
Consider `COc1ccc2cc(C(=O)O)oc(=O)c2c1` [Example 5, 7-Methoxyisocoumarin-3-carboxylic acid], for which, under setting [1], the inhibition at 25 mg/kg is 9% and the inhibition at 100 mg/kg amounted to 9%. Also, under setting [5], the inhibition at 25 mg/kg worked out at 4% and the inhibition at 100 mg/kg is 55%.
As for `O=C(O)c1cc2ccc(Br)cc2c(=O)o1` [Example 6, 7-Bromoisocoumarin-3-carboxylic acid], under setting [1], the inhibition at 25 mg/kg was 26% and the inhibition at 100 mg/kg turned out to be 39%. For the same compound, under setting [5], the inhibition at 25 mg/kg is 39% and the inhibition at 100 mg/kg is 0%.
Consider `Cc1cc2c(C)c(C(=O)O)oc(=O)c2cc1C` [Example 7, 4,6,7-Trimethylisocoumarin-3-carboxylic acid monohydrate], for which, under setting [1], the inhibition at 25 mg/kg was 10% and the inhibition at 100 mg/kg worked out at 15%. Besides, under setting [2], the inhibition at 25 mg/kg amounted to 39% and the inhibition at 100 mg/kg was 49%.
The corresponding values for `COc1cc2cc(C(=O)O)oc(=O)c2cc1OC` [Example 8, 6,7-Dimethoxyisocoumarin-3-carboxylic acid] are 64%, 84%, 24% and 24%.
The like results for `O=C(O)c1cc2ccccc2c(=O)[nH]1` [Example 9, Isocarbostyril-3-carboxylic acid] were, in that order, 21%, 36%, 15% and 25%.
The corresponding values for `Cc1c(C(=O)O)[nH]c(=O)c2ccccc12` [Example 10, 4-Methylisocarbostyril-3-carboxylic acid] are 12%, 26%, -13% and 21%.
With `COc1cc2cc(C(=O)O)[nH]c(=O)c2cc1OC` [Example 11, 6,7-Dimethoxyisocarbostyril-3-carboxylic acid], under setting [1], the inhibition at 25 mg/kg stood at 11% and the inhibition at 100 mg/kg was 38%. Besides, under setting [2], the inhibition at 25 mg/kg was 2% and the inhibition at 100 mg/kg was 17%.
As to `O=C(O)c1cc2ccccc2c(=O)s1` [Example 12, 2-Thiaisocoumarin-3-carboxylic acid], the inhibition at 25 mg/kg runs as follows: under setting [1], 0%; under setting [5], 4%. For the same compound, the inhibition at 100 mg/kg by setting is: under setting [1], 22%; under setting [5], 14%.
The corresponding values for `Cc1c(C(=O)O)sc(=O)c2ccccc12` [Example 13, 4-Methyl-2-thiaisocoumarin-3-carboxylic acid] are -6%, 6%, 6% and 19%.
Consider `COc1cc2cc(C(=O)O)sc(=O)c2cc1OC` [Example 14, 6,7-Dimethoxy-2-thiaisocoumarin-3-carboxylic acid], for which the inhibition at 12.5 mg/kg (iv, Dose 12.5 mg/Kg, time 10 mins prior to i.v. ovalbumin challenge) was determined as 28%. Also, under setting [6], the inhibition at 25 mg/kg was 47% and the inhibition at 100 mg/kg came to 87%. Also, the inhibition at 50 mg/kg (iv, Dose 50 mg/Kg, time 10 mins prior to i.v. ovalbumin challenge) amounted to 79%.
For `COc1ccc2cc(C(=O)O)oc(=O)c2c1OC` [Example 15, 7,8-Dimethoxyisocoumarin-3-carboxylic acid], under setting [6], the inhibition at 25 mg/kg came to 64% and the inhibition at 100 mg/kg came out at 63%. Under setting [2], the inhibition at 25 mg/kg was found to be 12% and the inhibition at 100 mg/kg was 29%.
